The values below come from PubChem BioAssay (NCI).

Some test systems named below: A549 NSCLC; MDA-MB-231 breast; NCI-H23 lung; NCI-H522 lung; MDA-MB-435; U251 CNS; HCC-2998 colon; PC-3 prostate; DU-145 prostate; TK-10 renal.
Holding throughout (assay): NCI anticancer screen, dose series, 48 h

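In this assay, cells in 96-well plates receive the compound at five concentrations for 48 hours. Endpoints are linearly interpolated between the surrounding concentrations. The concentration for 50% growth inhibition is given as GI50. Definition used: TGI = concentration required for complete inhibition of growth.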

For the compound `O=[N+]([O-])C1(C2([N+](=O)[O-])CCCC2)CCCC1`, the TGI in the assay on A549 NSCLC, in the assay on MDA-MB-231 breast, in the assay with NCI-H23 lung, in the assay on NCI-H522 lung, with MDA-MB-435 and in the assay on U251 CNS was more than 100 µM in each case. The TGI in the assay on HCC-2998 colon, in the assay on PC-3 prostate, in the assay with DU-145 prostate and with TK-10 renal was more than 100 µM throughout.

On to `N#Cc1c(NC(=S)NCc2ccccc2)sc2c1CCN(N1CCc3c(sc(NC(=S)NCc4ccccc4)c3C#N)C1)C2`, for which the TGI in the assay with A549 NSCLC, in the assay with MDA-MB-231 breast, in the assay on NCI-H23 lung, with NCI-H522 lung, in the assay on MDA-MB-435 and in the assay with U251 CNS was more than 100 µM throughout. The TGI in the assay with HCC-2998 colon, in the assay with PC-3 prostate, with DU-145 prostate and in the assay with TK-10 renal was more than 100 µM in each case.

Consider `COc1ccc(NC2=NCCO2)c2ccccc12`, for which the TGI with A549 NSCLC, in the assay on MDA-MB-231 breast, in the assay on NCI-H522 lung, in the assay with MDA-MB-435, in the assay on HCC-2998 colon and in the assay with PC-3 prostate was more than 10 µM throughout. In addition, the TGI in the assay on DU-145 prostate and with TK-10 renal was more than 10 µM each time.

In the case of `Cc1cn(C2CC(N=[N+]=[N-])C(CO[Si](C)(C)C(C)(C)C)O2)c(=O)[nH]c1=O` (stereo unspecified), the TGI was 87.8 µM in the assay on A549 NSCLC; 29.5 µM in the assay with MDA-MB-231 breast; 40.2 µM in the assay on NCI-H23 lung; 35.6 µM in the assay on NCI-H522 lung; 38.2 µM with MDA-MB-435; 33 µM in the assay with U251 CNS. Also, the TGI in the assay with HCC-2998 colon was determined as 26.5 µM; with PC-3 prostate it was 38.9 µM; in the assay with DU-145 prostate, 45.1 µM; with TK-10 renal it was 30.5 µM.

As for `C=CCn1c(=O)c(C)cn(/C(=C/C(=O)OCC)C(=O)OCC)c1=O`, the TGI was found to be 87.5 µM with A549 NSCLC; 29.3 µM in the assay on MDA-MB-231 breast; 31.8 µM in the assay on NCI-H23 lung; 10.9 µM in the assay on NCI-H522 lung; 28.2 µM in the assay on MDA-MB-435; 28.4 µM with U251 CNS. Also, the TGI in the assay with HCC-2998 colon is 33.5 µM; with PC-3 prostate, 28.9 µM; with DU-145 prostate, more than 74.3 µM; in the assay on TK-10 renal, 28.8 µM.

Take `C[C@@H]1OC(=O)C[C@H]2CC(=O)N(CCc3cn(S(=O)(=O)C(F)(F)F)c4ccccc34)C[C@@H]21`: the TGI in the assay with A549 NSCLC, in the assay on MDA-MB-231 breast, with NCI-H23 lung, in the assay with NCI-H522 lung, in the assay with MDA-MB-435 and in the assay on U251 CNS was more than 100 µM in each case. Further, the TGI with HCC-2998 colon, with PC-3 prostate, in the assay with DU-145 prostate and in the assay with TK-10 renal was more than 100 µM each time.

`CC1=C(C(=O)OC(C)C)C(c2ccccc2[N+](=O)[O-])C(C(=O)OC(CO[N+](=O)[O-])CO[N+](=O)[O-])=C(C)N1` (stereo unspecified): the TGI in the assay with A549 NSCLC was 12.9 µM; in the assay on MDA-MB-231 breast it was 35.4 µM; in the assay with NCI-H23 lung, 39.2 µM; in the assay with NCI-H522 lung, 8.45 µM; with MDA-MB-435 it was 13.2 µM; in the assay with U251 CNS, 13.4 µM. Moreover, the TGI in the assay on HCC-2998 colon is 43 µM; in the assay with PC-3 prostate it was 12.2 µM; in the assay with DU-145 prostate, more than 100 µM; in the assay on TK-10 renal, more than 100 µM.

For `Cn1c(=O)n(CC(Br)CBr)c(=O)n(CC(Br)CBr)c1=O` (stereo unspecified), the TGI with A549 NSCLC, in the assay on MDA-MB-231 breast, with NCI-H23 lung, with NCI-H522 lung, in the assay on MDA-MB-435 and in the assay on U251 CNS was more than 100 µM throughout. For the same compound, the TGI is 81.1 µM in the assay with HCC-2998 colon, more than 100 µM with PC-3 prostate, more than 100 µM with DU-145 prostate and more than 100 µM with TK-10 renal.

For the compound `CO[C@H]1O[C@@H]2CO[C@@H](c3ccccc3)O[C@H]2C[C@]12CCC/C=C\CO2`, the TGI in the assay with A549 NSCLC is more than 75 µM; with MDA-MB-231 breast, 39.3 µM; in the assay with NCI-H23 lung, 68.1 µM; in the assay on NCI-H522 lung it was 23.6 µM; in the assay on MDA-MB-435, 26.5 µM; with U251 CNS, 23.5 µM. For the same compound, the TGI is 54.5 µM in the assay with HCC-2998 colon, 50.8 µM in the assay with PC-3 prostate, more than 75 µM in the assay with DU-145 prostate and 59.2 µM with TK-10 renal.

For the compound `O=C(/C=C/c1ccc(Cl)c(Cl)c1)Oc1ccc(/C=C2\CCCCC2=O)cc1`, the TGI with A549 NSCLC, in the assay on MDA-MB-231 breast, in the assay with NCI-H23 lung, in the assay on NCI-H522 lung, in the assay on MDA-MB-435 and with U251 CNS was more than 100 µM in each case. Besides, the TGI in the assay on HCC-2998 colon, with PC-3 prostate, in the assay with DU-145 prostate and in the assay with TK-10 renal was more than 100 µM in each case.

As for `NC(=O)N(O)c1cccc(Br)c1`, the TGI in the assay on A549 NSCLC, with MDA-MB-231 breast, in the assay on NCI-H23 lung, in the assay on NCI-H522 lung, in the assay with MDA-MB-435 and in the assay on U251 CNS was more than 100 µM each time. The TGI with HCC-2998 colon, in the assay with PC-3 prostate, in the assay with DU-145 prostate and in the assay with TK-10 renal was more than 100 µM each time.

Turning to `S=C(Nc1ccc(Br)cn1)NC12CC3CC(CC(C3)C1)C2`, the TGI in the assay on A549 NSCLC is 53.5 µM; with MDA-MB-231 breast it was 58 µM; in the assay on NCI-H23 lung it was 38.9 µM; in the assay on NCI-H522 lung, 37.5 µM; in the assay with MDA-MB-435, more than 100 µM; in the assay with U251 CNS, 30 µM. For the same compound, the TGI in the assay on HCC-2998 colon was 83.3 µM; in the assay with PC-3 prostate, 43.2 µM; in the assay on DU-145 prostate it was more than 100 µM.

On to `CN1CCN(c2ccc3[nH]c(C4=C(O)c5nc(CO)n(C)c5C(=O)C4=O)nc3n2)CC1`, for which the TGI in the assay on A549 NSCLC, with MDA-MB-231 breast, in the assay on NCI-H23 lung, in the assay with NCI-H522 lung, with MDA-MB-435 and with U251 CNS was more than 100 µM each time. The TGI in the assay on HCC-2998 colon, in the assay on PC-3 prostate and with DU-145 prostate was more than 100 µM each time.

For `O=C(CCN1CCCC1)Nc1ccc2c(NCCCc3ccccc3)c3ccccc3nc2c1`, the GI50 in the assay with MDA-MB-231 breast was 1.02 µM; in the assay with NCI-H23 lung, 1.12 µM; in the assay on NCI-H522 lung, 0.664 µM; in the assay with MDA-MB-435, 1.46 µM; in the assay on U251 CNS, 1.04 µM; with HCC-2998 colon, 1.14 µM. The GI50 in the assay with PC-3 prostate is 0.566 µM; in the assay on DU-145 prostate it was 0.886 µM; in the assay on TK-10 renal, 1.66 µM. For the same compound, the TGI with MDA-MB-231 breast came to 2.3 µM; in the assay with NCI-H23 lung it was 2.41 µM; in the assay on NCI-H522 lung it was 2.15 µM; in the assay with MDA-MB-435, 2.82 µM; in the assay on U251 CNS, 2.36 µM; in the assay on HCC-2998 colon, 2.43 µM. For the same compound, the TGI with PC-3 prostate was determined as 1.94 µM; in the assay on DU-145 prostate it was 2.09 µM; in the assay with TK-10 renal, 3.41 µM.

Consider `CSC(=NCCN=C(NS(=O)(=O)c1ccc(Cl)cc1)SC)NS(=O)(=O)c1ccc(Cl)cc1`, for which the TGI in the assay with MDA-MB-231 breast was more than 100 µM; in the assay with NCI-H23 lung, more than 100 µM; in the assay with MDA-MB-435, more than 100 µM; with U251 CNS, 42.6 µM; with HCC-2998 colon, more than 100 µM; in the assay on PC-3 prostate it was more than 100 µM. Further, the TGI in the assay with DU-145 prostate and in the assay with TK-10 renal was more than 100 µM each time.

Take `CC(=O)c1cn(-c2ccc(Cl)cc2)c(=O)c2c(N)n[nH]c12`: the TGI in the assay with MDA-MB-231 breast, in the assay with NCI-H23 lung, in the assay with MDA-MB-435, with U251 CNS, with HCC-2998 colon and in the assay on PC-3 prostate was more than 100 µM throughout. The TGI with DU-145 prostate and in the assay on TK-10 renal was more than 100 µM in each case.

Regarding `COC(=O)C1(Cc2cccc(Cl)c2)CCCCCCN1C(=O)c1ccccc1` (stereo unspecified), the TGI in the assay on A549 NSCLC turned out to be 33.6 µM; in the assay on MDA-MB-231 breast, 29 µM; with NCI-H23 lung, 51.1 µM; in the assay with MDA-MB-435, 51.8 µM; in the assay on U251 CNS, 29.7 µM; in the assay on HCC-2998 colon it was 27.5 µM. Also, the results for the TGI in the assay on PC-3 prostate, in the assay on DU-145 prostate and in the assay with TK-10 renal were 17.4 µM, 37.7 µM and 29.5 µM, respectively.

As to `CSc1c(C#N)c2n(c3ccccc3[n+]2C)c2ncccc12`, the TGI is 77 µM in the assay with A549 NSCLC; 46.9 µM in the assay with MDA-MB-231 breast; 51.6 µM in the assay with NCI-H23 lung; 48.6 µM with NCI-H522 lung; more than 100 µM in the assay on MDA-MB-435; 70.8 µM in the assay on U251 CNS. In addition, the TGI in the assay on HCC-2998 colon was more than 100 µM; in the assay on PC-3 prostate, 45.3 µM; with DU-145 prostate, 47.2 µM.

Take `CC(=O)OC[C@@]12C[C@H]3C(=O)C(C)(C)C[C@H]3[C@]1(C)[C@@H](OC(C)=O)[C@]1(O)[C@H]([C@@H](OC(=O)c3ccccc3)[C@@H](C)[C@H]1OC(C)=O)[C@H]2OC(C)=O`: the TGI with MDA-MB-231 breast, in the assay with NCI-H23 lung, in the assay with NCI-H522 lung, in the assay on MDA-MB-435, with U251 CNS and in the assay on HCC-2998 colon was more than 20 µM each time. Besides, the TGI in the assay on PC-3 prostate, in the assay on DU-145 prostate and in the assay on TK-10 renal was more than 20 µM throughout.

On to `NC(CCCCNc1ccn(C2OC(CO)C(O)C2O)c(=O)n1)C(=O)O` (stereo unspecified), for which the TGI with A549 NSCLC, with MDA-MB-231 breast, with NCI-H522 lung, in the assay on MDA-MB-435, in the assay on U251 CNS and in the assay on HCC-2998 colon was more than 100 µM in each case. In addition, the TGI with PC-3 prostate, in the assay with DU-145 prostate and in the assay on TK-10 renal was more than 100 µM throughout.
